Data reported in PMC5442124 (Scientific Reports, 2017).

Columns and labels:
[1] = Elimination of DDTs from carp and carp tissues/organs after transfer to un-spiked sediment; format: in vivo, Cyprinus carpio; conditions: for percentage eliminated from brain: carp brain; for percentage eliminated from brain / percentage eliminated from kidney: end of experiments; for elimination percentage from gallbladder: carp gallbladder; for elimination percentage in heart: carp heart; for percentage eliminated from kidney: carp kidney
Description: (§1) Environmentally relevant concentration exposure was conducted according to Organization for Economic Cooperation and Development (OECD section 305 and 315) test guidelinesn, [52]. Tubifex tubifex (Oligochaeta, Tubificidae) was chosen as prey, which could accumulate DDTs from sediment and transfer them to carp (Cyprinus carpio). T. tubifex is one of the most widespread and ubiquitous groups, which was considered to be a good bio-indicator[53], [54]. Carp are omnivorous demersal fish in fresh water ecosystems, which can serve as bio-indicators of environmental contaminants and play significant roles in assessing potential risk[44]. Adult T. tubifex and carp (2.0 ± 0.2 g, about 5 cm in length, ignore the gender) were obtained from Guan Yuan market (Beijing, China) and acclimatized in the laboratory for 2 weeks. T. tubifex (80 g) and ten fish were added into the sediment-water system for the exposure experiment. Twenty-seven glass aquariums with spiked sediment were cultivated at 14 h/10 h photoperiods and at 20 ± 2 °C for 28 days (nine aquariums were used to analyze the individual fish and T. tubifex worms, eighteen aquariums were used to analyze the tissue distribution and toxic effects). The overlying water was gently aerated and unchanged. Overlying water, fish (one from each aquariums), worms (about 1 g) and sediment were sampled on the 1st, 3ed, 5th, 9th, 14th, 21st, and 28th day. At the end of bioaccumulation experiments, all the fish and worms were transferred to un-spiked sediment for elimination experiments, respectively. Overlying water, fish (one from each aquariums), worms (about 1 g) and sediment were sampled on the 1st, 3ed, 5th, 7th, and 10th day. […] Fish were euthanized with an ice/water mixture.
(§2) The different tissues/organs of carp were extracted with different methods. Details of the extraction process please refer to the Supplementary Material. The lipid content of animals was measured according to Bligh and Dyer[55]. […] Details please refer to the Supplemental Material.

[2] = Elimination of DDTs in T. tubifex after transfer to un-spiked sediment; format: in vivo; conditions: elimination experiment in un-spiked sediment
Description: as §1, §2

[3] = Bioaccumulation of DDTs in carp and carp tissues/organs in DDT spiked-sediment microcosm (food web); format: in vivo, Cyprinus carpio; conditions: treatment group; for concentration at 28 days / concentration at 9 day: Cyprinus carpio (carp), other: spiked sediment-water system with T. tubifex as prey; for concentration at 28 days: brain, end of the experiments; for concentration at 9 day: whole fish (wet weight), whole carp, read-out: concentration in carp at steady state; for maximum concentration in gastrointestinal tract: first 5 days
Description: (§3) The sediment was prepared in a glass aquarium with 3.6 kg soil (collected from China Agricultural University, and the physicochemical properties of the soil were as follows: clay, 34.8 ± 0.1%; silt, 10.0 ± 2.8%; sand, 55.2 ± 2.8%; organic matter, 24.4 ± 0.8 g/kg; and pH, 7.74 ± 0.05.) and 16 L de-chlorinated tap water, and incubated for seven days. The overlying water was discarded, and 400 g sediment (dry weight) was spiked with o,p’-DDT (50 ng/μL, 1600 μL) and p,p’-DDT (50 ng/μL, 1600 μL) in acetone. After the solvent was volatilized, the sediment was blended with the 3.6 kg sediment (dry weight) thoroughly. Dechlorinated tap water was added, and system was allowed to equilibrate for 48 h.
as §1, with “Tubifex tubifex (Oligochaeta, Tubificidae) was chosen as prey, which could accumulate DDTs from sediment and transfer them to carp (Cyprinus carpio).” left out
as §2

[4] = Bioaccumulation of DDTs in T. tubifex in DDT spiked-sediment microcosm; format: in vivo; conditions: for concentration at 28 day: Tubifex tubifex, whole worm (wet weight), other: exposure in spiked sediment-water system, day 28; for concentration at 28 day / maximum concentration in T. tubifex: treatment group; for maximum concentration in T. tubifex: fifth day
Description: as §3, §1
The control treatments (twenty-seven glass aquariums: nine aquariums were used to analyze the individual fish and T. tubifex worms, eighteen aquariums were used to analyze the tissue distribution and toxic effects) were composed of worms, fish and un-spiked sediment. The cultivation, sample time and dissection procedures were the same to the exposure experiments.
as §2

[5] = rainbow trout exposed in water; cited from earlier work
aquatic life = system: aquatic life; set-up: method as in earlier work; conditions: Canadian Sediment Quality Guidelines for the protection of aquatic life; cited from earlier work
[6] = set-up: method as in PMID 14194764; conditions: after 6 days’ dietary exposure to DDT (1500 μg/g); cited from earlier work

Compound | percentage eliminated from brain [1] [%] | elimination percentage from gallbladder [1] [%] | elimination percentage in heart [1] [%] | percentage eliminated from kidney [1] [%] | elimination efficiency in T. tubifex [2] [%] | concentration at 28 days ([3]; carp) [ng/g] | maximum concentration in T. tubifex [4] [ng/gwwt] | concentration in brain (maximum) ([3]; carp, 9th day) [ng/gwwt] | also measured
Clc1ccc(C(c2ccc(Cl)cc2)C(Cl)Cl)cc1 [p,p’-DDD] | 61.4 | 64.1 | 69.6 | 63.9 | 58.2 | 68.4 ± 0.6 |  |  | maximum concentration in kidney ([3]; carp, 28th day): 89.9 ± 3.7 ng/gwwt
Clc1ccc(C(c2ccccc2Cl)C(Cl)(Cl)Cl)cc1 (centres unmarked) [o,p’-DDT] |  |  | 51.9 |  | 65.7 |  | 74.6 ± 1.8 | 40.3 ± 1.8 | concentration at 28 day [4]: 5.6 ± 0.1 ng/g; concentration at 9 day ([3]; 9th day): 39.1 ± 0.3 ng/g; maximum concentration in kidney ([3]; carp, 9th day): 96.2 ± 2.0 ng/gwwt; maximum concentration in gastrointestinal tract ([3]; carp): 40.9 ± 0.9 ng/gwwt
ClC(Cl)=C(c1ccc(Cl)cc1)c1ccccc1Cl [o,p’-DDE] | 55.0 | 24.1 |  | 47.5 | 39.5 |  | 2.1 ± 0.2 | 3.1 ± 0.1 | 
Oc1c(Cl)c(Cl)c(Cl)c(Cl)c1Cl [pentachlorophenol] |  |  |  |  |  |  |  |  | dose eliminated in feces and bile [5]: 30%; dose eliminated in urine [5]: 20%; dose eliminated through the gills [5]: 50%
ClC(Cl)=C(c1ccc(Cl)cc1)c1ccc(Cl)cc1 [p,p’-DDE] | 52.8 | 50.8 | 59.9 | 48.7 | 25.7 | 41.6 ± 0.5 | 21.7 ± 0.8 |  | maximum concentration in T. tubifex, control group ([4]; control group (un-spiked sediment), 14th day): 28.2 ± 1.1 ng/gwwt; highest concentration in kidney ([3]; carp, 21st day): 46.9 ± 0.6 ng/gwwt; maximum concentration in muscle ([3]; carp, 21st day): 11.7 ± 2.6 ng/gwwt
Clc1ccc(C(c2ccc(Cl)cc2)C(Cl)(Cl)Cl)cc1 [DDT, Dichlorodiphenyltrichloroethane] |  |  |  |  |  |  |  |  | effects range-low (ERL) value in sediments (aquatic life): 1 ng/g; ratio DDT:DDD:DDE detected in the livers of rats [6]: approximately 3
Clc1ccc(C(c2ccc(Cl)cc2)C(Cl)(Cl)Cl)cc1 [p,p’-DDT] |  |  |  |  | 73.6 |  | 165.5 ± 2.7 | 49.1 ± 1.0 | concentration at 28 day [4]: 18.4 ± 2.2 ng/g; concentration at 9 day ([3]; 9th day): 57.3 ± 3.1 ng/g; maximum concentration in kidney ([3]; carp, 9th day): 124.0 ± 2.6 ng/gwwt; maximum concentration in gastrointestinal tract ([3]; carp): 43.2 ± 0.5 ng/gwwt
Clc1ccc(C(c2ccccc2Cl)C(Cl)Cl)cc1 (centres unmarked) [o,p’-DDD] | 65.5 | 66.9 | 72.5 | 65.4 | 49.0 | 45.7 ± 0.3 |  |  | maximum concentration in kidney ([3]; carp, 28th day): 73.5 ± 1.9 ng/gwwt
